Measured values taken from PMC9014410, “Discovery of V-0219: A Small-Molecule Positive Allosteric Modulator of the Glucagon-Like Peptide-1 Receptor toward Oral Treatment for “Diabesity”” (Journal of Medicinal Chemistry, 2022).

target: hGLP-1R (Homo sapiens, UniProt P43220); test: cAMP accumulation in HEK-293 cells expressing hGLP-1R (HEK-GLP-1 cells); assay type: cell-based; conditions: HEK293, read-out: Potentiation of GLP-1 Emax at 10 ?M in a cAMP assay (%); 10 ?M compound (supplementary csv)
Sequence (P43220 24-463): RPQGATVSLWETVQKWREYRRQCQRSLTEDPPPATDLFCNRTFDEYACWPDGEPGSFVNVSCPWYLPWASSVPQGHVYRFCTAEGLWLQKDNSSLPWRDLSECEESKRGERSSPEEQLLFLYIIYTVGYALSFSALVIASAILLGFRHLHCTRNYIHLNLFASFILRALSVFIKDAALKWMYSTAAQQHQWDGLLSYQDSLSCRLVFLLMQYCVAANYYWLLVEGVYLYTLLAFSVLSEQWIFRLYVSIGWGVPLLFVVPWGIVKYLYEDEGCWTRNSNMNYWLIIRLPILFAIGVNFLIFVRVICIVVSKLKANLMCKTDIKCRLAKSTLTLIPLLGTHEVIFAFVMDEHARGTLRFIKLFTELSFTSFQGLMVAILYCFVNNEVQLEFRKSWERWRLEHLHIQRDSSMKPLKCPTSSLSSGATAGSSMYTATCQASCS
Method: After this time the culture medium was replaced by 20 μL fresh Opti-MEM containing 500 μM IBMX and 100 μM K579 and incubated with gentle stirring for 10 min at rt. […] Concentration-response curves were fitted to a 4-parameter logistic equation by using GraphPad Prism 2.1 software.

Emax, < 30%:
Fc1cccc(-c2noc(CN3CCCC(CN4CCOCC4)C3)n2)c1 (stereo not shown) [S77]
Fc1ccccc1-c1noc(CN2CCCC(CN3CCOCC3)C2)n1 (stereo not shown) [S76]
CNc1cccc(-c2noc(CN3CCCC(CN4CCOCC4)C3)n2)c1 (stereo not shown) [S74]
CNc1ccccc1-c1noc(CN2CCCC(CN3CCOCC3)C2)n1 (stereo not shown) [S73]
CCCS(=O)(=O)NCC1CCN(Cc2nc(-c3ccc(C(F)(F)F)cc3)no2)CC1 [S21]
O=C(NS(=O)(=O)c1cccc(Cl)c1)C1CCN(Cc2nc(-c3ccc(C(F)(F)F)cc3)no2)CC1 [S45]
COc1ccc(-c2noc(CN3CCCC(CN4CCOCC4)C3)n2)cc1 (stereo not shown) [S72]
O=[N+]([O-])c1ccccc1S(=O)(=O)NC1CCN(Cc2nc(-c3ccc(C(F)(F)F)cc3)no2)CC1 [S5]
O=S(=O)(Cc1ccccc1)NC1CCN(Cc2nc(-c3ccc(C(F)(F)F)cc3)no2)CC1 [S3]
Fc1ccc(-c2noc(CN3CCCC(CN4CCOCC4)C3)n2)cc1 (stereo not shown) [S78]
CCCS(=O)(=O)NC1CCN(Cc2nc(-c3ccc(C(F)(F)F)cc3)no2)CC1 [S2]
Cc1cccc(-c2noc(CN3CCCC(CN4CCOCC4)C3)n2)c1 (stereo not shown) [S68]
CS(=O)(=O)NCC1CCN(Cc2nc(-c3ccc(C(F)(F)F)cc3)no2)CC1 [S20]
CS(=O)(=O)NC(=O)CC1CCN(Cc2nc(-c3ccc(C(F)(F)F)cc3)no2)CC1 [S52]
N#Cc1ccccc1S(=O)(=O)NCC1CCN(Cc2nc(-c3ccc(C(F)(F)F)cc3)no2)CC1 [S25]
CC(=O)c1cccc(S(=O)(=O)NCC2CCN(Cc3nc(-c4ccc(C(F)(F)F)cc4)no3)CC2)c1 [S23]
O=C(CC1CCN(Cc2nc(-c3ccc(C(F)(F)F)cc3)no2)CC1)NS(=O)(=O)c1cccc(Cl)c1 [S58]
COc1ccc(Br)cc1S(=O)(=O)NC1CCN(Cc2nc(-c3ccc(C(F)(F)F)cc3)no2)CC1 [S18]
O=C(CC1CCN(Cc2nc(-c3ccc(C(F)(F)F)cc3)no2)CC1)NS(=O)(=O)c1ccc(C(F)(F)F)cc1 [S62]
COc1ccc(S(=O)(=O)NCC2CCN(Cc3nc(-c4ccc(C(F)(F)F)cc4)no3)CC2)cc1 [S34]
O=C(NS(=O)(=O)c1ccc(C(F)(F)F)cc1)C1CCN(Cc2nc(-c3ccc(C(F)(F)F)cc3)no2)CC1 [S49]
COc1ccccc1-c1noc(CN2CCCC(CN3CCOCC3)C2)n1 (stereo not shown) [S70]
O=S(=O)(NCC1CCN(Cc2nc(-c3ccc(C(F)(F)F)cc3)no2)CC1)c1ccccc1Cl [S28]
N#Cc1ccc(S(=O)(=O)NCC2CCN(Cc3nc(-c4ccc(C(F)(F)F)cc4)no3)CC2)cc1 [S27]
O=C(NS(=O)(=O)c1cccc(F)c1)C1CCN(Cc2nc(-c3ccc(C(F)(F)F)cc3)no2)CC1 [S42]
COC(=O)c1ccc(-c2noc(CN3CCCC(CN4CCOCC4)C3)n2)cc1 (stereo not shown) [S83]
O=S(=O)(NC1CCN(Cc2nc(-c3ccc(C(F)(F)F)cc3)no2)CC1)c1ccc(OC(F)(F)F)cc1 [S17]
CCCS(=O)(=O)NC(=O)CC1CCN(Cc2nc(-c3ccc(C(F)(F)F)cc3)no2)CC1 [S53]
O=S(=O)(NCC1CCN(Cc2nc(-c3ccc(C(F)(F)F)cc3)no2)CC1)c1cccc(Cl)c1 [S29]
O=C(NS(=O)(=O)c1ccc(OC(F)(F)F)cc1)C1CCN(Cc2nc(-c3ccc(C(F)(F)F)cc3)no2)CC1 [S50]
Cc1ccccc1S(=O)(=O)NC1CCN(Cc2nc(-c3ccc(C(F)(F)F)cc3)no2)CC1 [S15]
